IC50 data for two molecules are collected here from ChEMBL document CHEMBL3638788, “Benzoxazines, benzothiazines, and related compounds having NOS inhibitory activity” (2013).

SMILES strings stand for the structures.

One assay has as its target Nitric oxide synthase 1 (Homo sapiens, UniProt P29475). Briefly: (§1) Enzyme Assay: Primary stock solutions of test compounds at a concentration of 6 mM were prepared from the 2 to 5 mg powder. The primary stock solutions of each test compound were prepared freshly in distilled water on the day of study to obtain a final concentration of 6 mM. For determination of IC50 values, 12 test compound concent rations were prepared as 3-fold serial dilutions. Concentration range of test compound utilized for nNOS were 0.001 to 300 μM and for eNOS were 0.003 to 10 00 μM. The vehicle of the test compound or inhibitor was used as blank control. For non-specific activity, 100 μM L-NMMA was used. Runs using the IC50 concentration of L-NAME were done in parallel as controls. All incubations are performed in duplicate.

A further assay deals with T1, Nitric oxide synthase 3 (Homo sapiens, UniProt P29474).
T1 sequence (P29474 whole entry): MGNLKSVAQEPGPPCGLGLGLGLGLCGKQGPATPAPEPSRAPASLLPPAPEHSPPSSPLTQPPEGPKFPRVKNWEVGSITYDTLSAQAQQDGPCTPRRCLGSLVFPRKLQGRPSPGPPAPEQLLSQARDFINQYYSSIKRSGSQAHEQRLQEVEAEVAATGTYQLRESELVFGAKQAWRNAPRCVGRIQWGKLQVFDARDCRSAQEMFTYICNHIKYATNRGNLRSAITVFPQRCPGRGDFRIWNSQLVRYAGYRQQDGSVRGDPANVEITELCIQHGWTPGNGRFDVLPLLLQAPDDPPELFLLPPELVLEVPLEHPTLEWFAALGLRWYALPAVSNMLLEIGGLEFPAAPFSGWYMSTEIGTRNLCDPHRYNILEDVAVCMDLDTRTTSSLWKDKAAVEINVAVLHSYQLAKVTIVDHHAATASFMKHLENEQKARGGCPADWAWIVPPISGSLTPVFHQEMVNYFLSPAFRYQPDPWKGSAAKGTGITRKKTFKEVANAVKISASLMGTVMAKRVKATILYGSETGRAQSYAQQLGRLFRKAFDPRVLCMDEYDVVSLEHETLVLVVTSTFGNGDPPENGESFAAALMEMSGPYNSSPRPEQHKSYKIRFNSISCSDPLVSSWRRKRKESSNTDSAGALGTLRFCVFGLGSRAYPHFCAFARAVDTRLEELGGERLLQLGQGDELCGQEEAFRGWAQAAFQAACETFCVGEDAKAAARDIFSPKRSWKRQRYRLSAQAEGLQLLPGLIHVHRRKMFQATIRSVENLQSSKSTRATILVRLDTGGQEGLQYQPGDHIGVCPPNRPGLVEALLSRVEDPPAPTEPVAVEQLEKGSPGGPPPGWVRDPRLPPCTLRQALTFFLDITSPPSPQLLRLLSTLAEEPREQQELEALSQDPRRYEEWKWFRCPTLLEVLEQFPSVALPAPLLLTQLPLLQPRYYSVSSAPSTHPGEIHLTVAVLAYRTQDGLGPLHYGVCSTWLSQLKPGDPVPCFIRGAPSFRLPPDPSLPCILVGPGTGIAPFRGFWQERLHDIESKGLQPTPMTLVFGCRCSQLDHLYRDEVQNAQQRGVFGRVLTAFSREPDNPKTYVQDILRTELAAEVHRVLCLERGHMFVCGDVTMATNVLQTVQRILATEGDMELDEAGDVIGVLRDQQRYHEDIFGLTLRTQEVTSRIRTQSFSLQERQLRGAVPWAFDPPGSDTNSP
The description is as §1.

Assay [1] addresses Nitric oxide synthase, inducible (Homo sapiens, UniProt P35228). Kind of assay: Enzyme Assay: Recombinant human inducible NOS (iNOS) was produced in Baculovirus-infected Sf9 cells (ALEXIS). In a radiometric method, NO synthase activity was determined by measuring the conversion of [3H]L-arginine to [3H]L-citrulline. To measure iNOS, 10 uL of enzyme was added to 100 uL of 100 mM HEPES, pH=7.4, containing 1 mM CaCl2, 1 mM EDTA, 1 mM dithiothreitol, 1 uM FMN, 1 uM FAD, 10 uM tetrahydrobiopterin, 120 uM NADPH, and 100 nM CaM. To measure enzyme inhibition, a 15 uL solution of a test substance was added to the enzyme assay solution, followed by a pre-incubation time of 15 min at RT. The reaction was initiated by addition of 20 uL L-arginine containing 0.25 uCi of [3H] arginine/mL and 24 uM L-arginine. The total volume of the reaction mixture was 150 uL in every well.

Chain of Nitric oxide synthase, inducible (P35228 whole entry): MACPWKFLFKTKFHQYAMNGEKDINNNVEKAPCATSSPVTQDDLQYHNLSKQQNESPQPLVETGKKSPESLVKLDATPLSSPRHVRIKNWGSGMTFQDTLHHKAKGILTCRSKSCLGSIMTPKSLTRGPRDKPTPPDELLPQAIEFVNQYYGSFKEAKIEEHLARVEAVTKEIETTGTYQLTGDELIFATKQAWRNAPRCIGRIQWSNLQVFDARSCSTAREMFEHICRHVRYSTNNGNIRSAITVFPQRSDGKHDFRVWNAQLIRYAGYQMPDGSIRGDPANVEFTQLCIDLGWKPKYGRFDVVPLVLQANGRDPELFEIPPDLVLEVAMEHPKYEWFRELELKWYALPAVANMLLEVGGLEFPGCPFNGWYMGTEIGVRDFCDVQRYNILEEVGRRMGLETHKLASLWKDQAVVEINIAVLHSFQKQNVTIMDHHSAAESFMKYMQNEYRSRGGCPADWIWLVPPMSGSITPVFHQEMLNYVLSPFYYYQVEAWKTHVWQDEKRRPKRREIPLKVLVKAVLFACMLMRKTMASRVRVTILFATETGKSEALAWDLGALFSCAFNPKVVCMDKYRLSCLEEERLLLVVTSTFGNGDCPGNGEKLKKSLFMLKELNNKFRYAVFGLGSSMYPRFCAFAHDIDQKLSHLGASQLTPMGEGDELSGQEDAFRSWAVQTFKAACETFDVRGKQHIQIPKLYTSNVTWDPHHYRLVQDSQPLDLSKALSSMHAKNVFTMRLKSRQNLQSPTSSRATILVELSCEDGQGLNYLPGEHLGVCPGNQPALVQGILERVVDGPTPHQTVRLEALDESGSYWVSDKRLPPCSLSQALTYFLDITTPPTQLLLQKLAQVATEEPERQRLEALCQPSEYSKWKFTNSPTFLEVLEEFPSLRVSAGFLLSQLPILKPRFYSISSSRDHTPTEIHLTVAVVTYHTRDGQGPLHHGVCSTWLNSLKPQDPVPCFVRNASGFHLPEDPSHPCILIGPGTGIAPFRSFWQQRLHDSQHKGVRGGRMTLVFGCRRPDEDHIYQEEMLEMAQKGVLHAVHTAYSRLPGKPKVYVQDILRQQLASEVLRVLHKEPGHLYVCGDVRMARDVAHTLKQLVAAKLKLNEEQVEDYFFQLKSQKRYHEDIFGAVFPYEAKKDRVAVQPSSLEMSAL
Chain of Nitric oxide synthase 1 (P29475 whole entry): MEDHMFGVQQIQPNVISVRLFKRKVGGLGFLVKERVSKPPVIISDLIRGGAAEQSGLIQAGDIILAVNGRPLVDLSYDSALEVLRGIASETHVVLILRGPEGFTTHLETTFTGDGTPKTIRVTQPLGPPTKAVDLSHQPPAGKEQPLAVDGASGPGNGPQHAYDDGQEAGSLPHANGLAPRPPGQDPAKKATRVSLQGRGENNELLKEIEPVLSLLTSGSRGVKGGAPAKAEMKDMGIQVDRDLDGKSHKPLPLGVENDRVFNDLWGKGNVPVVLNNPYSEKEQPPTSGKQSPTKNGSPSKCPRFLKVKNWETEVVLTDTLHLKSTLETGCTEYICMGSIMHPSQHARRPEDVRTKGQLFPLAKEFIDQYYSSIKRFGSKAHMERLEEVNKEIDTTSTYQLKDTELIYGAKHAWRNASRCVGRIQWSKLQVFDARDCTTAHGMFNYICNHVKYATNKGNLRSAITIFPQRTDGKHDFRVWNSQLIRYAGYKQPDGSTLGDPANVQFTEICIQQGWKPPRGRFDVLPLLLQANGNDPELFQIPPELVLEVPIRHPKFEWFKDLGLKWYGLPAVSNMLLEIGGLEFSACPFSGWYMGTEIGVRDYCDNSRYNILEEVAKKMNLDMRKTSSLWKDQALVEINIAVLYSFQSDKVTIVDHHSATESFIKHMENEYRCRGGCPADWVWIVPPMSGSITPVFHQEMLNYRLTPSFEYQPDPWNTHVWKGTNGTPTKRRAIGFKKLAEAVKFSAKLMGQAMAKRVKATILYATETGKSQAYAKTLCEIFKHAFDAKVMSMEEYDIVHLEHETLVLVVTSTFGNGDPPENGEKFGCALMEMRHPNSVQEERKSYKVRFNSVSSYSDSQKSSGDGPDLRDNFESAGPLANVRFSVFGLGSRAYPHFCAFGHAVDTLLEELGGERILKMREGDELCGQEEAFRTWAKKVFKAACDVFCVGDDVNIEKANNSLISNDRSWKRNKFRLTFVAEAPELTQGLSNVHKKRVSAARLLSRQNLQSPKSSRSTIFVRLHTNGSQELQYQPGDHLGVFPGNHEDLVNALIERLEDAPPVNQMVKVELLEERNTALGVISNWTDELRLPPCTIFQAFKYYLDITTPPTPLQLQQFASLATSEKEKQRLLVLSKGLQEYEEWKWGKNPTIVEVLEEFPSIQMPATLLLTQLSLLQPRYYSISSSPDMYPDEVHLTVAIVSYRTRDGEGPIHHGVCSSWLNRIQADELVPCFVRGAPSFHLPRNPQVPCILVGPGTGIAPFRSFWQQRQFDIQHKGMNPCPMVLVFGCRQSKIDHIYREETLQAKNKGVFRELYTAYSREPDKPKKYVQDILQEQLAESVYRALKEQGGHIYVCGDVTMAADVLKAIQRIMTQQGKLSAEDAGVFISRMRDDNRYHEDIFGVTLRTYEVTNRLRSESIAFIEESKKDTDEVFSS

As a reminder, the IC50 is the concentration that inhibits the measured activity by half. `CN1CCCC1CCN1C(=O)COc2cc(NC(=N)c3cccs3)ccc21` (stereo not given): the results for the 50% inhibitory concentration (IC50) (against Nitric oxide synthase 1; against Nitric oxide synthase 3; in assay [1]) were 2.08 µM, 87.2 µM and greater than 100 µM, respectively.
With `CN1CCCC1CCN1CCOc2cc(/N=C(\N)c3cccs3)ccc21` (stereo not given), the IC50 at Nitric oxide synthase 1 was 0.43 µM; in assay [1] it was 10.6 µM.
